Results reported in patent publication EP0080071A2, “2-Imidazolylmethyl-2-phenyl-1,3-dioxolanes, process for their preparation and their use as fungicides” (BAYER AG, priority 1981, dated 1983).

Assays:
[1] = test system: Drechslera graminea (syn. Helminthosporium gramineum); assay: Drechslera graminea test (barley) / seed treatment; format: in vivo; conditions: dry seed dressing of infected barley seed; evaluation for stripe disease symptoms ca. 3 weeks after sowing; compared with the prior-art comparison substances
Text: Drechslera graminea-Test (Gerste) / Saatgutbehandlung (syn. Helminthosporium gramineum)
Die Anwendung der Wirkstoffe erfolgt als Trockenbeizmittel. Sie werden zubereitet durch Abstrecken des jeweiligen Wirkstoffes mit Gesteinsmehl zu einer feinpulvrigen Mischung, die eine gleichmäßige Verteilung auf der Saatgutoberfläche gewährleistet.
Zur Beizung schüttelt man das infizierte Saatgut 3 Minuten lang mit dem Beizmittel in einer verschlossenen Glasflasche.
Das Saatgut setzt man in gesiebter, feuchter Standarderde eingebettet, in verschlossenen Petrischalen im Kühlschrank 10 Tage lang einer Temperatur von 4°C aus. Dabei wird die Keimung der Gerste und gegebenenfalls auch der Pilzsporen eingeleitet. Anschließend sät man die vorgekeimte Gerste mit 2 x 50 Korn 3 cm tief in eine Standarderde und kultiviert sie im Gewächshaus bei einer Temperatur von ca. 18°C in Saatkästen, die täglich 15 Stunden dem Licht ausgesetzt werden.
Ca. 3 Wochen nach der Aussaat erfolgt die Auswertung der Pflanzen auf Symptome der Streifenkrankheit.

Podosphaera leucotricha = assay: Podosphaera test (apple) / protective; format: in vivo; conditions: protective spray on young apple plants; evaluation 9 days after inoculation; compared with the prior-art comparison substances
Text: Podosphaera-Test (Apfel) / protektiv
• Lösungsmittel: 4,7 Gewichtsteile Aceton • Emulgator: 0,3 Gewichtsteile Alkylarylpolyglykolether
Zur Herstellung einer zweckmäßigen Wirkstoffzubereitung vermischt man 1 Gewichtsteil Wirkstoff mit den angegebenen Mengen Lösungsmittel und Emulgator und verdünnt das Konzentrat mit Wasser auf die gewünschte Konzentration.
Zur Prüfung auf protektive Wirksamkeit bespritzt man jungePflanzen mit der Wirkstoffzubereitung bis zur Tropfnässe. Nach Antrocknen des Spritzbelages werden die Pflanzen durch Bestäuben mit Konidien des Apfelmehltauerregers (Podosphaera leucotricha) inokuliert.
Die Pflanzen werden dann im Gewächshaus bei 23°C und einer relativen Luftfeuchtigkeit von ca. 70 % aufgestellt.
9 Tage nach der Inokulation erfolgt die Auswertung.

## Cl.FC(F)(F)c1cc(Cl)ccc1C1(Cn2ccnc2)OCCO1 [Beispiel 1, 2-(4-Chlor-2-trifluormethyl)-phenyl-2-(imidazol-1-yl)-methyl-1,3-dioxolan-hydrochlorid]
[1]
  Wirksamkeit: deutliche überlegenheit in der Wirksamkeit gegenüber dem Stand der Technik
Podosphaera leucotricha
  Wirksamkeit: deutliche Überlegenheit in der Wirksamkeit gegenüber dem Stand der Technik
